Data taken from patent publication US20100105655A1, “NOVEL COMPOUNDS 515” (ASTRAZENECA AB, priority 2008, published 2010).
pIC50: −log10 of the molar value.

These compounds were tested against T1, IGFR kinase (Homo sapiens, UniProt P08069) (assay: Enzyme assay (c), IGFR kinase, Caliper LabChip). Details: 30 nM IGFR kinase, 6 uM ATP, 3 uM peptide mix; read-out: IGFR IC50.
T1 construct: purchased Millipore
T1 sequence (P08069 31-1367): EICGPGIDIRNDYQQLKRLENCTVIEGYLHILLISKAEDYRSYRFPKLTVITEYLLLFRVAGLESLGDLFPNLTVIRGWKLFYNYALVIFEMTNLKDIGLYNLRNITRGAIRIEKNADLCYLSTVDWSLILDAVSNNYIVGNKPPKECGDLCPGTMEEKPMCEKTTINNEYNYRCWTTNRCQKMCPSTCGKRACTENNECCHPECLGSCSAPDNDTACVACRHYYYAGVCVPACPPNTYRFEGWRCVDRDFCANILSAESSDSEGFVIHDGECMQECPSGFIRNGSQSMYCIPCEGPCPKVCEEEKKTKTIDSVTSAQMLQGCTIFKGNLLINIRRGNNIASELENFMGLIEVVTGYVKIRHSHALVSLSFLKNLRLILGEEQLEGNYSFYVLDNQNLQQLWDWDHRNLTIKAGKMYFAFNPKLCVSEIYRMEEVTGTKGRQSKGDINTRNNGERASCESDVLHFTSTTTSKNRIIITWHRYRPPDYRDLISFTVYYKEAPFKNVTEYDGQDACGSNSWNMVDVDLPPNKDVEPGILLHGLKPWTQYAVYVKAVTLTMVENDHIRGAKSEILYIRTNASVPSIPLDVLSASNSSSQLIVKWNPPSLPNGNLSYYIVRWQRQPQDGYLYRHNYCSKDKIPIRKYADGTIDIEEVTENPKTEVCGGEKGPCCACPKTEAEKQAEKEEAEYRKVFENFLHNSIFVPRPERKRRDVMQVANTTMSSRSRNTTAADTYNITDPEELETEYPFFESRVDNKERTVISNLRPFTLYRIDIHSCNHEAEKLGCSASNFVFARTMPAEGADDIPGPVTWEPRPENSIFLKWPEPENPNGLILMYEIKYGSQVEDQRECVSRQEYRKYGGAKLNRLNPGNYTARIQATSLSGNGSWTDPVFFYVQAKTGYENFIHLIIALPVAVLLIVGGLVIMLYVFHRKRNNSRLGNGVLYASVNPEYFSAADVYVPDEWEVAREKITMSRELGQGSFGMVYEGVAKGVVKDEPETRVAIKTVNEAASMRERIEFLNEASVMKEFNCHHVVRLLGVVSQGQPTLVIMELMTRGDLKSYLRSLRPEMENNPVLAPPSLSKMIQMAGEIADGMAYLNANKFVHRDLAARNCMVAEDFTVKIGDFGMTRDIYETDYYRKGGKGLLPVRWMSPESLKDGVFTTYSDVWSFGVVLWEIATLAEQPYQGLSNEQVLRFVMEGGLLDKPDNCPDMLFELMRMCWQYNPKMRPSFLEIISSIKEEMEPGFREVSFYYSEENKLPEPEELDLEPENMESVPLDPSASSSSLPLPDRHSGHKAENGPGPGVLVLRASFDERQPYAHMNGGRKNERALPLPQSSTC
Format: biochemical
For `COc1cc(CN2CCC[C@@H](O)C2)ccc1Nc1ncc(Cl)c(-c2cnc3ccccn23)n1` [Example 21.12, (3R)-1-[[4-[(5-chloro-4-imidazo[1,2-a]pyridin-3-yl-pyrimidin-2-yl)amino]-3-methoxy-phenyl]methyl]piperidin-3-ol], the pIC50 was 7.62. Work on `CC(=O)N1CCN(c2ccc(Nc3ncc(Cl)c(-c4cnc5ccccn45)n3)c(OC(C)C)c2)CC1` [Example 3.34, 1-[4-[4-[(5-chloro-4-imidazo[1,2-a]pyridin-3-yl-pyrimidin-2-yl)amino]-3-isopropoxy-phenyl]piperazin-1-yl]ethanone] yielded a pIC50 of 7.66. `COc1cc(N2CCN(C(C)=O)CC2)ccc1Nc1ncc(Cl)c(-c2cnc3cc(CN(C)C(C)=O)ccn23)n1` [Example 188, N-[[3-[2-[4-(4-acetylpiperazin-1-yl)-2-methoxy-anilino]-5-chloro-pyrimidin-4-yl]imidazo[1,2-a]pyridin-7-yl]methyl]-N-methyl-acetamide] showed a pIC50 of 6.92. Work on `COc1cc(C2CCN(C(C)=O)CC2)ccc1Nc1ncc(C)c(-c2cnc3c(F)cccn23)n1` [Example 196, 1-[4-[4-[[4-(8-fluoroimidazo[1,2-a]pyridin-3-yl)-5-methyl-pyrimidin-2-yl]amino]-3-methoxy-phenyl]-1-piperidyl]ethanone] yielded a pIC50 of 7.89. For `CCNCC(=O)N1CCN(c2ccc(Nc3ncc(Cl)c(-c4cnc5ccccn45)n3)c(OC)c2)CC1` [Example 24.11, 1-[4-[4-[(5-chloro-4-imidazo[1,2-a]pyridin-3-yl-pyrimidin-2-yl)amino]-3-methoxy-phenyl]piperazin-1-yl]-2-ethylamino-ethanone], the pIC50 was 7.82. For `COc1cc(N2CCN(C(C)=O)CC2)ccc1Nc1ncc(C)c(-c2cnc3ccccn23)n1` [Example 97, 1-[4-[4-[(4-imidazo[1,2-a]pyridin-3-yl-5-methyl-pyrimidin-2-yl)amino]-3-methoxy-phenyl]piperazin-1-yl]ethanone], the pIC50 was 7.33. `COc1cc(N2CCN(CC(=O)N3CCOCC3)CC2)ccc1Nc1ncc(Cl)c(-c2cnc3ccccn23)n1` [Example 3.3, 2-[4-[4-[(5-chloro-4-imidazo[1,2-a]pyridin-3-yl-pyrimidin-2-yl)amino]-3-methoxy-phenyl]piperazin-1-yl]-1-morpholino-ethanone] gave a pIC50 of 7.96. In the case of `CC(=O)N1CCN(c2cc(C)c(Nc3ncc(Cl)c(-c4cnc5ccccn45)n3)cc2F)CC1` [Example 3.33, 1-[4-[4-[(5-chloro-4-imidazo[1,2-a]pyridin-3-yl-pyrimidin-2-yl)amino]-2-fluoro-5-methyl-phenyl]piperazin-1-yl]ethanone], the pIC50 was 7.80. In the case of `COc1cc(N2CCN(C(=O)[C@@H](C)N)CC2)ccc1Nc1ncc(C)c(-c2cnn3ccccc23)n1` [Example 235, (2R)-2-amino-1-[4-[3-methoxy-4-[(5-methyl-4-pyrazolo[1,5-a]pyridin-3-yl-pyrimidin-2-yl)amino]phenyl]piperazin-1-yl]propan-1-one], the pIC50 was 7.89. `COc1cc(C2CCN(C(=O)[C@@H](C)O)CC2)ccc1Nc1ncc(Cl)c(-c2cnn3ccccc23)n1` [Example 138, (2R)-1-[4-[4-[(5-chloro-4-pyrazolo[1,5-a]pyridin-3-yl-pyrimidin-2-yl)amino]-3-methoxy-phenyl]-1-piperidyl]-2-hydroxy-propan-1-one] gave a pIC50 of 8.52. `CNC(=O)[C@H](C)Oc1ccc(Nc2ncc(Cl)c(-c3cnc4c(F)cccn34)n2)c(OC)c1` [Example 218, (2S)-2-[4-[[5-chloro-4-(8-fluoroimidazo[1,2-a]pyridin-3-yl)pyrimidin-2-yl]amino]-3-methoxy-phenoxy]-N-methyl-propanamide] was tested, and the pIC50 was 8.15. In the case of `COc1cc2c(cc1Nc1ncc(Cl)c(-c3cnn4ccccc34)n1)N(C(=O)CN(C)C)CC2` [Example 157, 1-[6-[(5-chloro-4-pyrazolo[1,5-a]pyridin-3-yl-pyrimidin-2-yl)amino]-5-methoxy-indolin-1-yl]-2-(dimethylamino)ethanone], the pIC50 was 9.00. `COc1cc(N2CC[C@H](O)C2)ccc1Nc1ncc(F)c(-c2cnc3ccccn23)n1` [Example 83, (3S)-1-[4-[(5-fluoro-4-imidazo[1,2-a]pyridin-3-yl-pyrimidin-2-yl)amino]-3-methoxy-phenyl]pyrrolidin-3-ol] showed a pIC50 of 6.78. With `COc1cc(C2CCN(C(=O)[C@@H](C)O)CC2)ccc1Nc1ncc(C)c(-c2cnn3ccccc23)n1` [Example 164, (2R)-2-hydroxy-1-[4-[3-methoxy-4-[(5-methyl-4-pyrazolo[1,5-a]pyridin-3-yl-pyrimidin-2-yl)amino]phenyl]-1-piperidyl]propan-1-one] the pIC50 was 7.82. Work on `COc1cc(N2C[C@@H]3C[C@H]2CN3C(C)=O)ccc1Nc1ncc(Cl)c(-c2cnn3ccccc23)n1` [Example 241, 1-[(1S,4S)-2-[4-[(5-chloro-4-pyrazolo[1,5-a]pyridin-3-yl-pyrimidin-2-yl)amino]-3-methoxy-phenyl]-2,5-diazabicyclo[2.2.1]heptan-5-yl]ethanone] yielded a pIC50 of 7.44. `COc1cc(N2CCN(C(=O)C3CCCN3)CC2)ccc1Nc1ncc(Cl)c(-c2cnc3ccccn23)n1` (stereo not shown) [Example 24.3, [4-[4-[(5-chloro-4-imidazo[1,2-a]pyridin-3-ylpyrimidin-2-yl)amino]-3-methoxyphenyl]piperazin-1-yl]-pyrrolidin-2-yl methanone] was tested, and the pIC50 was 8.30. Compound `COc1cc(N2CC3CN(C(=O)[C@@H](C)O)CC(C2)O3)ccc1Nc1ncc(Cl)c(-c2cnc3c(F)cccn23)n1` [Example 214, (2R)-1-[3-[4-[[5-chloro-4-(8-fluoroimidazo[1,2-a]pyridin-3-yl)pyrimidin-2-yl]amino]-3-methoxy-phenyl]-9-oxa-3,7-diazabicyclo[3.3.1]nonan-7-yl]-2-hydroxy-propan-1-one] has a pIC50 of 7.74. For `COc1cc(N2CCN(C(=O)[C@@H](C)N)CC2)ccc1Nc1ncc(Cl)c(-c2cnc3ccc(F)cn23)n1` [Example 252, (2R)-2-amino-1-[4-[4-[[5-chloro-4-(6-fluoroimidazo[1,2-a]pyridin-3-yl)pyrimidin-2-yl]amino]-3-methoxy-phenyl]piperazin-1-yl]propan-1-one], the pIC50 was 8.15. With `COc1cc(C2CCN(C(=O)[C@@H](C)OC)CC2)ccc1Nc1ncc(Cl)c(-c2cnc3ccccn23)n1` [Example 28.1, (2R)-1-[4-[4-[(5-chloro-4-imidazo[1,2-a]pyridin-3-yl-pyrimidin-2-yl)amino]-3-methoxy-phenyl]-1-piperidyl]-2-methoxy-propan-1-one] the pIC50 was 8.30. `COc1cc(N2CCN(C(=O)[C@@H](C)O)CC2)ccc1Nc1ncc(Cl)c(-c2cnc3c(F)cccn23)n1` [Example 178, (2R)-1-[4-[4-[[5-chloro-4-(8-fluoroimidazo[1,2-a]pyridin-3-yl)pyrimidin-2-yl]amino]-3-methoxy-phenyl]piperazin-1-yl]-2-hydroxy-propan-1-one] showed a pIC50 of 7.82. Work on `COc1cc(N2CCN(CCO)CC2)ccc1Nc1ncc(Cl)c(-c2cnc3c(F)cccn23)n1` [Example 194, 2-[4-[4-[[5-chloro-4-(8-fluoroimidazo[1,2-a]pyridin-3-yl)pyrimidin-2-yl]amino]-3-methoxy-phenyl]piperazin-1-yl]ethanol] yielded a pIC50 of 7.82. Work on `COc1cc(OC2CN(C(=O)[C@H](C)OC)C2)ccc1Nc1ncc(Cl)c(-c2cnc3ccccn23)n1` [Example 27.2, (2S)-1-[3-[4-[(5-chloro-4-imidazo[1,2-a]pyridin-3-yl-pyrimidin-2-yl)amino]-3-methoxy-phenoxy]azetidin-1-yl]-2-methoxy-propan-1-one] yielded a pIC50 of 7.44. In the case of `COc1cc(N2CCN(C(=O)CO)CC2)ccc1Nc1ncc(Cl)c(-c2cnc3ccc(F)cn23)n1` [Example 249, 1-[4-[4-[[5-chloro-4-(6-fluoroimidazo[1,2-a]pyridin-3-yl)pyrimidin-2-yl]amino]-3-methoxy-phenyl]piperazin-1-yl]-2-hydroxy-ethanone], the pIC50 was 8.30. In the case of `COc1ccc(N2CCC(OC)CC2)cc1Nc1ncc(Cl)c(-c2cnc3ccccn23)n1` [Example 3.20, 5-chloro-4-imidazo[1,2-a]pyridin-3-yl-N-[2-methoxy-5-(4-methoxy-1-piperidyl)phenyl]pyrimidin-2-amine], the pIC50 was 7.37. `COc1ccc(N2CCNCC2)cc1Nc1ncc(F)c(-c2cnn3ccccc23)n1` [Example 174, 5-fluoro-N-(2-methoxy-5-piperazin-1-yl-phenyl)-4-pyrazolo[1,5-a]pyridin-3-yl-pyrimidin-2-amine] gave a pIC50 of 7.20. `CNCC(=O)N1CCc2cc(OC)c(Nc3ncc(Cl)c(-c4cnn5ccccc45)n3)cc21` [Example 156, 1-[6-[(5-chloro-4-pyrazolo[1,5-a]pyridin-3-yl-pyrimidin-2-yl)amino]-5-methoxy-indolin-1-yl]-2-(methylamino)ethanone] showed a pIC50 of 8.40. Work on `COc1cc(CN2CCCN(C)CC2)ccc1Nc1ncc(Cl)c(-c2cnc3ccccn23)n1` [Example 21.11, 5-chloro-4-imidazo[1,2-a]pyridin-3-yl-N-[2-methoxy-4-[(4-methyl-1,4-diazepan-1-yl)methyl]phenyl]pyrimidin-2-amine] yielded a pIC50 of 7.64. For `COc1cc(N2CCN(C(C)(C)CO)CC2)ccc1Nc1ncc(C)c(-c2cnc3ccccn23)n1` [Example 229, 2-[4-[4-[(4-imidazo[1,2-a]pyridin-3-yl-5-methyl-pyrimidin-2-yl)amino]-3-methoxy-phenyl]piperazin-1-yl]-2-methyl-propan-1-ol], the pIC50 was 7.70. Work on `COc1cc(N2CCNC(=O)C2)ccc1Nc1ncc(F)c(-c2cnc3ccccn23)n1` [Example 88, 4-[4-[(5-fluoro-4-imidazo[1,2-a]pyridin-3-yl-pyrimidin-2-yl)amino]-3-methoxy-phenyl]piperazin-2-one] yielded a pIC50 of 7.64. `COc1cc(N2CCN(C(C)=O)CC2)ccc1Nc1ncc(F)c(-c2cnc3ccccn23)n1` [Example 72, 1-[4-[4-[(5-fluoro-4-imidazo[1,2-a]pyridin-3-yl-pyrimidin-2-yl)amino]-3-methoxy-phenyl]piperazin-1-yl]ethanone] showed a pIC50 of 7.02. In the case of `CNC(=O)C1CC(c2ccc(Nc3ncc(Cl)c(-c4cnc5ccccn45)n3)c(OC)c2)CN1` (stereo not shown) [Example 3.27, 4-[4-[(5-chloro-4-imidazo[1,2-a]pyridin-3-yl-pyrimidin-2-yl)amino]-3-methoxy-phenyl]-N-methyl-pyrrolidine-2-carboxamide], the pIC50 was 8.22.
